For series [1], the target named is Gastrin-releasing peptide receptor (Homo sapiens, UniProt P30550). The experiment in a line: Displacement of [125I]-Tyr4-bombesin from GRP receptor in human PC3 cells. Type of series: cell-based, PC-3.
A short description of series [2]: Half life of the compound in water. Type of series: physicochemical.

Chain of Gastrin-releasing peptide receptor (P30550 whole entry): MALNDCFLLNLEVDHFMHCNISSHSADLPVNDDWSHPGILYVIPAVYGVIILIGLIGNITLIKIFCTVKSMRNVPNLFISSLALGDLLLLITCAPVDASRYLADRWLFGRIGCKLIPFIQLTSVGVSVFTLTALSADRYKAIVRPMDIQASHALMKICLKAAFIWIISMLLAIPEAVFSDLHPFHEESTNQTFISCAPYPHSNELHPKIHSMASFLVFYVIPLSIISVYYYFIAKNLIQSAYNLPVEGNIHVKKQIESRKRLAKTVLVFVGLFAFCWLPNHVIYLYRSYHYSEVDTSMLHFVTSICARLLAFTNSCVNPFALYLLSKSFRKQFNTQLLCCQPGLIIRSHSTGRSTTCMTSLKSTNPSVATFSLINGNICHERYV

A word on the IC50: it is the concentration needed to halve the response being measured. Compound `CSCC[C@H](NC(=O)[C@H](CC(C)C)NC(=O)[C@H](Cc1cnc[nH]1)NC(=O)CNC(=O)[C@@H](NC(=O)[C@H](C)NC(=O)[C@H](Cc1c[nH]c2ccccc12)NC(=O)[C@H](CCC(N)=O)NC(=O)[C@H](CC(N)=O)NC(=O)CNC(=O)[C@H](CC(C)C)NC(=O)[C@H](CCCCNC(=O)c1ccc(F)cc1)NC(=O)[C@H](CCC(N)=O)NC(=O)[C@@H]1CCC(=O)N1)C(C)C)C(N)=O` showed an IC50 in series [1] of 5.3 nM.

The term half-life denotes the time in which the quantity being followed falls by half. Lower therefore signals rapid decline. In series [2], `CC(C)(C)[Si](F)(c1ccc(CC(=O)NCc2ccccc2)cc1)C(C)(C)C` displayed a half-life above 300 h.

Compound `CC(C)(C)[Si](F)(CCO)C(C)(C)C` had a half-life in series [2] of 8 h.

(Values after ChEMBL document CHEMBL2429805, “Studies toward the development of new silicon-containing building blocks for the direct (18)F-labeling of peptides” (J Med Chem, 2013).)
